From ChEMBL document CHEMBL5674850, “ASAP - Solubility” (2024)
In brackets after ≈: the same amount, converted by molar mass. Several values for one entry are separate records, joined by “and”; a condition that tells them apart may be missing. Identical values can stand only once.

assay: Kinetic solubility of compound by measuring concentration at pH 7.4 in saturated PBS buffer by UV LCMS/MS using calibration curves. The assay has been performed by Enamine biological services, Bienta Ltd.The protocol is publicly available: dx.doi.org/10.17504/protocols.io.j8nlk8y41l5r/v1; type: physicochemical; conditions: PBS buffer

solubility kinetic	Structure (SMILES)
320 µM (≈ 128 µg/mL)	COCCNC(=O)[C@H](Nc1ccc2c(c1)CNC2)c1cc(Cl)cc(C2CC2)c1
374 µM (≈ 148 µg/mL)	N#CCCNC(=O)[C@H](Nc1ccc2c(c1)CNC2)c1cc(Cl)cc(C2CC2)c1
358 µM (≈ 127 µg/mL)	CNC(=O)[C@H](Nc1ccc2c(c1)CNC2)c1cc(Cl)cc(C2CC2)c1
172 µM (≈ 72.2 µg/mL)	CN(c1ccc2c(c1)CNC2)[C@H](C(=O)NCC(F)F)c1cc(Cl)cc(C2CC2)c1
392 µM (≈ 134 µg/mL)	CSc1cc2c(cc1NC(=O)c1cc(F)cc3[nH]ncc13)CNC2
372 µM (≈ 128 µg/mL)	O=C(Nc1ccc2c(c1)CNC2)c1cccc2[nH]c(C(F)(F)F)cc12
3 µM (≈ 1.19 µg/mL)	N#Cc1cccc(-c2nc3c(C(=O)Nc4ccc5c(c4)CNC5)cc(F)cc3[nH]2)c1
≥ 400 µM	O=C(NCC(F)F)[C@H](Nc1ccc2c(c1)CNC2)c1cc(Br)cc2nc[nH]c12
377 µM (≈ 136 µg/mL)	O=C(Nc1ccc2c(c1)CNC2)c1ccc2[nH]cc(C3CCNCC3)c2c1
394 µM (≈ 158 µg/mL)	O=C(NCCCF)[C@H](Nc1ccc2c(c1)CNC2)c1cc(Cl)cc(C2CC2)c1
192 µM (≈ 78.7 µg/mL)	COCc1cc(Cl)cc([C@H](Nc2ccc3c(c2)CNC3)C(=O)NCC(F)F)c1
340 µM (≈ 135 µg/mL)	CO[C@H]1C[C@H](n2ncc3c(C(=O)Nc4ccc5c(c4)CNC5)cc(Cl)cc32)C1
309 µM (≈ 95.9 µg/mL)	Cn1cc2c(C(=O)Nc3ccc4c(c3)CNC4)cc(F)cc2n1
333 µM (≈ 161 µg/mL)	O=C(NCC(F)F)[C@H](Nc1cc2c(cc1Br)CNC2)c1cc(Cl)cc(C2CC2)c1
≥ 400 µM	CNC(=O)c1cc(Br)cc([C@H](Nc2ccc3c(c2)CNC3)C(=O)NCC(F)F)c1
16 µM (≈ 6.47 µg/mL)	COc1ccc(-c2nc3c(C(=O)Nc4ccc5c(c4)CNC5)cc(F)cc3[nH]2)nn1
379 µM (≈ 151 µg/mL)	CCCCNC(=O)[C@H](Nc1ccc2c(c1)CNC2)c1cc(Cl)cc(C2CC2)c1

solubility kinetic	Structure (SMILES)
≥ 400 µM	COc1cc(Cl)cc([C@H](Nc2ccc3c(c2)CNC3)C(=O)NCC(F)F)c1
4 µM (≈ 1.5 µg/mL)	O=C(Nc1cc(Br)c2c(c1)CNC2)c1cc(F)cc2[nH]ncc12
368 µM (≈ 115 µg/mL)	O=C1Cc2c(cc(F)cc2C(=O)Nc2ccc3c(c2)CNC3)N1
362 µM (≈ 147 µg/mL)	O=C(NCC(F)F)[C@H](Nc1cnc2c(c1)CNC2)c1cc(Cl)cc(C2CC2)c1
≥ 400 µM	Cc1cc([C@H](Nc2ccc3c(c2)CNC3)C(=O)NCC(F)F)cc(C(F)(F)F)c1
≥ 400 µM	O=C(NCC(F)F)[C@H](Nc1ccc2c(c1)CNC2)c1cc(Cl)cc2c1CCC2
161 µM (≈ 62.3 µg/mL)	Cn1c(=O)[nH]c2c(C(=O)Nc3ccc4c(c3)CNC4)cc(Br)cc21
187 µM (≈ 75.9 µg/mL)	O=C(NCC(F)F)[C@H](Nc1ccc2c(c1)CNC2)c1cc(Cl)cc2ccoc12
≥ 400 µM	Cn1ncc2c(C(=O)Nc3ccc4c(c3)CNC4)cc(Cl)cc21
6 µM (≈ 2.34 µg/mL)	O=C(Nc1ccc2c(c1)CNC2)c1cc(F)cc2[nH]c(-c3ccc(F)cc3)nc12
381 µM (≈ 147 µg/mL)	COc1cc(C#N)cc([C@H](Nc2ccc3c(c2)CNC3)C(=O)NCC(F)F)c1
392 µM (≈ 137 µg/mL)	Nc1ccncc1-c1cc(F)cc(C(=O)Nc2ccc3c(c2)CNC3)c1
181 µM (≈ 64.2 µg/mL)	CC(C)n1cc2c(C(=O)Nc3ccc4c(c3)CNC4)cc(Cl)cc2n1
141 µM (≈ 60.1 µg/mL)	O=C(Nc1cc2c(c(C3=CCS(=O)(=O)CC3)c1)CNC2)c1cc(F)cc2[nH]ncc12
172 µM (≈ 63.1 µg/mL)	O=C(Nc1ccc2c(c1)CNC2)c1cc(Cl)cc2c1cnn2C1CCC1
157 µM (≈ 59.4 µg/mL)	O=C(Nc1cc2c(c(C3=CCOCC3)c1)CNC2)c1cc(F)cc2[nH]ncc12

same assay, conditions: buffer

Solubility (mean)	Structure (SMILES)
367 µM and 326 µM	O=C(NCC(F)F)[C@H](Nc1ccc2c(c1)CNC2)c1cc(Cl)cc(C2CC2)c1

same assay, conditions: buffer, ph 7.5

Solubility (mean)	Structure (SMILES)
139 µM (≈ 56.4 µg/mL)	O=C(NCC(F)F)[C@H](Nc1ccc2c(c1)CNC2)c1cc(Cl)cc(C2CC2)c1
